Experimental findings from the supplement of paper PMC10307832 are described below.

What all share (assay): relative viability (nuclei count vs DMSO), 5 days (fraction); higher = more cells survive
Compound in the assay “Serdemetan + Navitoclax”: c1ccc2c(CCNc3ccc(Nc4ccncc4)cc3)c[nH]c2c1 [Serdemetan] + CC1(C)CCC(c2ccc(Cl)cc2)=C(CN2CCN(c3ccc(C(=O)NS(=O)(=O)c4ccc(N[C@H](CCN5CCOCC5)CSc5ccccc5)c(S(=O)(=O)C(F)(F)F)c4)cc3)CC2)C1 [Navitoclax] (partner 0.5 µM)
The gist of the method:
(§1)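 The day after seeding in 1536-well plates, lung cancer cell lines were treated by pin tool with a single drug, or with a fixed anchor-drug dose together with five library-drug doses (not always all listed) in √10 steps. After 5 days, a combined fix-and-stain solution (final 0.05% Triton X-100, 1% formaldehyde, 1 ug/ml Hoechst) was added. Nuclei counted on 4× images gave relative viability as treated counts over vehicle counts, reported as the median of duplicate plates.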

Compound in the assay “Serdemetan + Pemetrexed”: c1ccc2c(CCNc3ccc(Nc4ccncc4)cc3)c[nH]c2c1 [Serdemetan] + Nc1nc2[nH]cc(CCc3ccc(C(=O)N[C@@H](CCC(=O)O)C(=O)O)cc3)c2c(=O)[nH]1 [Pemetrexed] (partner 0.2 µM)
The gist of the method: as §1

Compound in the assay “Selisistat + Lapatinib”: C1CC(C2=C(C1)C3=C(N2)C=CC(=C3)Cl)C(=O)N [Selisistat] + CS(=O)(=O)CCNCc1ccc(-c2ccc3ncnc(Nc4ccc(OCc5cccc(F)c5)c(Cl)c4)c3c2)o1 [Lapatinib] (partner 2 µM)
The method in brief:
as §1

Compound in the assay “Serdemetan + Pictilisib”: c1ccc2c(CCNc3ccc(Nc4ccncc4)cc3)c[nH]c2c1 [Serdemetan] + CS(=O)(=O)N1CCN(Cc2cc3nc(-c4cccc5[nH]ncc45)nc(N4CCOCC4)c3s2)CC1 [Pictilisib] (partner 1 µM)
The gist of the method:
as §1

In the case of UMC-11, the relative viability was 0.327 in the assay with Serdemetan + Navitoclax (first compound 0.04 µM); 0.387 with Serdemetan + Navitoclax (first compound 0.1265 µM); 0.314 in the assay with Serdemetan + Navitoclax (first compound 0.4 µM); 0.266 with Serdemetan + Navitoclax (first compound 1.265 µM); 0.313 with Serdemetan + Navitoclax (first compound 4 µM); 0.776 with Serdemetan + Pemetrexed (first compound 0.04 µM). For the same cell line, the relative viability stood at 0.718 in the assay with Serdemetan + Pemetrexed (first compound 0.1265 µM); 0.689 with Serdemetan + Pemetrexed (first compound 0.4 µM); 0.666 in the assay with Serdemetan + Pemetrexed (first compound 1.265 µM); 0.586 with Serdemetan + Pemetrexed (first compound 4 µM); 0.921 with Selisistat + Lapatinib (first compound 0.4 µM); 0.999 with Selisistat + Lapatinib (first compound 1.265 µM). Besides, the relative viability with Selisistat + Lapatinib (first compound 4 µM) came to 0.893; with Selisistat + Lapatinib (first compound 12.65 µM) it was 0.94; in the assay with Selisistat + Lapatinib (first compound 40 µM) it was 1.06; with Serdemetan + Pictilisib (first compound 0.04 µM) it was 0.813; in the assay with Serdemetan + Pictilisib (first compound 0.1265 µM), 0.866; with Serdemetan + Pictilisib (first compound 0.4 µM) it was 0.824. Further, the relative viability is 0.47 with Serdemetan + Pictilisib (first compound 1.265 µM) and 0.737 in the assay with Serdemetan + Pictilisib (first compound 4 µM).
